The source of these data is publication PMC3471809 (Bioorganic & medicinal chemistry, 2012).

In brackets after ≈: the same amount, converted by molar mass. Like-named read-outs stand apart in the source and are kept apart here.

Experiment [1] concerns the target T1, S. aureus PlsY (SaPlsY) (Staphylococcus aureus, UniProt P67164).
T1 sequence (P67164 1-202): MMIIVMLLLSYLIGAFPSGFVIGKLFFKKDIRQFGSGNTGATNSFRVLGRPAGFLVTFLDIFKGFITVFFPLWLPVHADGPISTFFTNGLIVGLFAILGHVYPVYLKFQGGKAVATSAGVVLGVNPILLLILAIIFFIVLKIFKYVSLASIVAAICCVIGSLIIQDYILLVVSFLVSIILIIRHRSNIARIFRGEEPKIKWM
Nature of the experiment: biochemical. The class given is E. coli FB23281 (delta plsY) membranes.

Another experiment concerns S. pneumoniae R6. Nature of the experiment: microbe, parasite or virus in culture. To be noted: Streptococcus pneumoniae, R6, read-out: MIC.
In experiment [2] the target is T1, S. aureus PlsY (SaPlsY). Nature of the experiment: biochemical. The class given is E. coli FB23281 (delta plsY) membranes. This is another data set of the same source.

As to `CCCCCCCCCCCCCCCC(=O)NS(=O)(=O)OC1CCNCC1` [compound 6], the IC50 against S. aureus PlsY (SaPlsY) [1] is greater than 100 µM.
Regarding `CCCCCCCCCCCCCCCC(=O)NS(=O)(=O)Oc1ccc(CC(=O)OC)cc1` [compound 14, Methyl 2-(4-(N-palmitoylsulfamoyloxy)phenyl)acetate], the MIC in the experiment with S. pneumoniae R6 was 100 mg/L (≈ 207 µM).
Consider `CCCCCCCCCCCCCCCC(=O)NS(=O)(=O)Oc1ccc(C(=O)OCC)cc1` [compound 15, Ethyl 4-(N-palmitoylsulfamoyloxy)benzoate], for which the MIC in the experiment on S. pneumoniae R6 was found to be 200 mg/L (≈ 414 µM).
For `CCCCCCCCCCCCCCCC(=O)NS(=O)(=O)Oc1ccc(CCN)cc1` [compound 16], at S. aureus PlsY (SaPlsY) [2], the IC50 is greater than 100 µM.
In the case of `CCCCCCCCCCCCCCCC(=O)NS(=O)(=O)Oc1ccc(-c2ccc([N+](=O)[O-])cc2)cc1` [compound 18, 4'-nitrobiphenyl-4-yl palmitoylsulfamate], in the experiment on S. pneumoniae R6, the MIC is 100 mg/L (≈ 188 µM).
Same read-out and setting: then `CCCCCCCCCCCCCCCC(=O)NS(=O)(=O)Oc1ccc2c(c1)OCO2` [compound 19, Benzo[d][1,3]dioxol-5-yl palmitoylsulfamate], with 200 mg/L (≈ 439 µM).
On the same count and under the same terms, the result for `CCCCCCCCCCCCCCCC(=O)NS(=O)(=O)Oc1ccc2ncccc2c1` [compound 20, Quinolin-6-yl palmitoylsulfamate] reads greater than 200 mg/L.
The same measure, in the same setting: the result for `CCCCCCCCCCCCCCCC(=O)NS(=O)(=O)Oc1ccc2c(OS(N)(=O)=O)coc2c1` [compound 21] reads greater than 200 mg/L.

For orientation: IC50 means the midpoint of a concentration-inhibition curve.
